Results reported in ChEMBL document CHEMBL4610043, “Design, synthesis and identification of novel, orally bioavailable non-covalent Nrf2 activators” (Bioorg Med Chem Lett, 2020).
≈ marks a conversion by molar mass, not a printed value.

Columns and labels:
[1] = Efflux ratio of apparent permeability in MDCK-MDR1 cells; assay type: ADME, cell-based, Canis lupus familiaris; conditions: dog
[2] = Tmax in rat at 5 mg/kg, po; assay type: ADME, organism-based; conditions: in vivo
[3] = fCmax In C57BL/6 mouse at 10 mg/kg, po; assay type: ADME, organism-based; conditions: in vivo
[4] = AUC in rat at 5 mg/kg, po; assay type: ADME, organism-based; conditions: in vivo
[5] = Cmax in C57BL/6 mouse at 10 mg/kg, po; assay type: ADME, organism-based; set-up: dose 10 mg/kg, route oral; conditions: in vivo
[6] = Half life in rat at 1 mg/kg, iv; assay type: ADME, organism-based; conditions: in vivo
[7] = AUC in rat at 1 mg/kg, iv; assay type: ADME, organism-based; conditions: in vivo
[8] = Clearance in rat at 1 mg/kg, iv; assay type: ADME, organism-based; conditions: in vivo
[9] = Protein binding in mouse plasma assessed as unbound fraction at 2 uM by rapid equilibrium dialysis method; assay type: ADME, cell-free
[10] = Volume of distribution at steady state in rat at 1 mg/kg, iv; assay type: ADME, organism-based; conditions: in vivo, read-out: Vdss
[11] = Oral bioavailability in rat at 5 mg/kg; assay type: ADME, organism-based; conditions: in vivo
[12] = Cmax in rat at 5 mg/kg, po; assay type: ADME, organism-based; set-up: dose 5 mg/kg, route oral; conditions: in vivo
[13] = Protein binding in human plasma assessed as unbound fraction at 2 uM by rapid equilibrium dialysis method; assay type: ADME, cell-free
[14] = Distribution coefficient, log D of compound at pH 7.4 by shake flask method; assay type: physicochemical; conditions: octanol/water
[15] = Protein binding in rat plasma assessed as unbound fraction at 2 uM by rapid equilibrium dialysis method; assay type: ADME, cell-free
[16] = Aqueous solubility of compound at pH 6.8 by shake flask method; assay type: physicochemical; conditions: buffer
[17] = Protein binding in mouse brain assessed as unbound fraction; assay type: ADME, tissue-based
[18] = Unbound brain to plasma concentration ratio in mouse; assay type: ADME; conditions: brain and plasma, read-out: K(p,uu,brain)

efflux ratio [1] | Tmax [2] [min] | fCmax [3] [nM] | AUC [4] [ng·h/mL] | Cmax [5] [µM] | half-life [6] [min] | AUC [7] [ng·h/mL] | clearance [8] [mL/min/kg] | fraction unbound at 2 µM [9] | Vd [10] [L/kg] | bioavailability [11] [%] | Cmax [12] [ng/mL] | fraction unbound at 2 µM [13] | logD [14] | fraction unbound at 2 µM [15] | solubility thermodynamic [16] [µg/mL] | fraction unbound [17] | Kp uu [18] | Compound
104 | – | – | – | – | – | – | – | – | – | – | – | – | – | – | – | – | – | CCn1nnc2c(C)c([C@H](c3ccc4c(c3)CN(C(=O)c3c(C)c(C)cc(C)c3C)CC4)C(C)(C)C(=O)O)ccc21
– | 55.2 | 33 | 2720 | 6.7 | 226 | 2510 | 6.16 | 0.00505 | 0.707 | 20 | 958 | 0.00708 | 1.39 | 0.00568 | 29.5 (≈ 56.2 µM) | 0.0211 | 0.04 | CCn1nnc2c(C)c([C@@H](CC(=O)O)c3ccc4c(c3)CN(C(=O)c3c(C)c(C)cc(C)c3C)CC4)ccc21
